These results are taken from patent publication US20160000851A1, “Bioactive Botanical Compositions and Uses Thereof” (AKZO NOBEL CHEMICALS INTERNATIONAL B.V., priority 2013, published 2016).

Assay type in all cases: cell-based
Data set [1] relates to IL-8. Put plainly: Inhibition of basal level non-induced IL-8 release in human epidermal keratinocytes. As to conditions: HEK, 16 hours. The procedure:
(§1) The protocols for the growth and treatment of human primary epidermal keratinocyte (HEK) cultures are as follows. HEK and all cell culture supplies were obtained from Life Technologies Co. (Carlsbad, Calif.). The cells were maintained in keratinocyte growth medium (KGM), which contains keratinocyte basal medium 154 (M154) and human keratinocyte growth supplements (HKGS). They were grown at 37° C. in an atmosphere of 5% (v/v) CO2 and used between passages from 2 to 4. For the treatment, keratinocytes were trypsinized by Trypsin 0.025%/EDTA 0.01% in Phosphate Buffered Saline, seeded in 96-well plates, and grown in KGM to about 80% confluence. The cells were then exposed to SDS (Sigma-Aldrich Co., St. Louis, Mo.) at various concentrations for about 16 hours. After incubation, the supernatants were collected, and IL-1α and IL-8 were quantified using Quantikine® ELISA (R&D Systems, Minneapolis, Minn.). Results were presented as the mean±standard deviation. IC50 was calculated using sigmoidal curve fitting with SigmaPlot Version 10.0 (Systat Software). LDH (lactate dehydrogenase) assay (G-Biosciences, St. Louis, Mo.) was performed on all the supernatants to assess cytotoxicity.
The protocols for the growth of HEK are described under Example 1.

The test system of data set [2] is IL-1α. Kind of data set: Inhibition of ethoxylated alcohol-induced IL-1α release in human epidermal keratinocytes (ELISA). The settings on record: HEK, ethoxylated alcohol 1000 μg/ml, 16 hours. (An ELISA detects its analyte on a solid surface through an enzyme-linked reagent.)
Procedure: Treatment was conducted by incubation of HEK with ethoxylated alcohol (1000 μg/ml for induction of IL-1α as determined in Example 3) for 16 hours in presence of a range of concentrations of Recentia® CS, or Aspirin.
Treatment was conducted by incubation of HEK with ethoxylated alcohol (500 μg/ml for induction of IL-1α, as determined in Example 3) for 16 hours in presence of a range of concentrations of Recentia® CS, or conventional green tea preparation or conventional black tea preparation.
Data set [3] relates to IL-1α. Kind of data set: Inhibition of SDS-induced IL-1α release in human epidermal keratinocytes (ELISA). As to conditions: Keratinocyte, HEK, SDS 25 μg/ml, 16 hours, read-out: Estimated IC50 for inhibition of SDS-induced IL-1α release.
Data set [4] deals with IL-8. Kind of data set: Inhibition of SDS-induced IL-8 release in human epidermal keratinocytes (ELISA). The settings on record: HEK, SDS 6 μg/ml, 16 hours.
Procedure: The protocols for the growth and treatment of human primary epidermal keratinocyte (HEK) cultures are as follows. HEK and all cell culture supplies were obtained from Life Technologies Co. (Carlsbad, Calif.). The cells were maintained in keratinocyte growth medium (KGM), which contains keratinocyte basal medium 154 (M154) and human keratinocyte growth supplements (HKGS). They were grown at 37° C. in an atmosphere of 5% (v/v) CO2 and used between passages from 2 to 4. For the treatment, keratinocytes were trypsinized by Trypsin 0.025%/EDTA 0.01% in Phosphate Buffered Saline, seeded in 96-well plates, and grown in KGM to about 80% confluence. The cells were then exposed to SDS (Sigma-Aldrich Co., St. Louis, Mo.) at various concentrations for about 16 hours. After incubation, the supernatants were collected, and IL-1α and IL-8 were quantified using Quantikine® ELISA (R&D Systems, Minneapolis, Minn.). […] IC50 was calculated using sigmoidal curve fitting with SigmaPlot Version 10.0 (Systat Software). […]
Treatment was conducted by incubation of HEK with SDS (25 μg/ml for induction of IL-1α or 6 μg/ml for induction of IL-8 as determined in Example 1) for 16 hours in presence of a range of concentrations of Recentia® CS, or conventional green tea preparation, or conventional black tea preparation.
Data set [5] concerns human epidermal keratinocytes (HEK). Kind of data set: Mildness ranking of surfactants by LDH cytotoxicity and IL-1α release in HEK. The settings on record: based on LDH cytotoxicity and IL-1α induction in HEK. The method, then:
as §1, with “cytotoxicity. […]” for “cytotoxicity.”

Data set [6] relates to IL-8. Kind of data set: Surfactant induction of IL-8 release in human epidermal keratinocytes. As to conditions: HEK, 16 hours, SDS at 6 μg/ml. The procedure:
as §1
(§2) The protocols for the growth of HEK are described under Example 1. Instead of SDS, the keratinocytes were exposed to a range of concentrations of ethoxylated alcohol for about 16 hours.

Data set [7] deals with IL-1α. Kind of data set: Surfactant induction of IL-1α release in human epidermal keratinocytes. The settings on record: HEK, 16 hours, SDS at 25 μg/ml. The procedure: as §1, §2

Values after ≈ are worked out from the molar mass of the structure shown.

As to `C[S+]([O-])c1ccc(-c2nc(-c3ccncc3)c(-c3ccc(F)cc3)[nH]2)cc1` (stereo not shown) [SB203580], the “Inhibition of basal level non-induced IL-8 release (in words)” value in the data set on IL-8 [1] is given as “inhibited SDS-induced IL-8 only”.

Regarding `CC(=O)Oc1ccccc1C(=O)O` [Aspirin], the “Inhibition of ethoxylated alcohol-induced IL-1α release (in words)” value in the data set on IL-1α [2] was “failed to inhibit IL-1α release induced by the ethoxylated alcohol”. Also, the IC50 with IL-1α [3] was around 230 µg/mL (≈ 1280 µM). Also, the “Inhibition of SDS-induced IL-8 release (in words)” value in the data set with IL-8 [4] is “did not inhibit SDS-induced release of inflammatory chemokine IL-8”.

`CCCCCCCCCCCCOS(=O)(=O)[O-].[Na+]` [SDS, Sodium Dodecyl Sulfate]: the “Mildness/harshness rank among six tested surfactants” value in data set [5] is given as “close to the harshest surfactant”. In the data set on IL-8 [6], the “Induction of IL-8 release by surfactant” value is reported as “significant (p<0.001) induction of IL-8”. The “Induction of IL-1α release by surfactant” value with IL-1α [7] is “significant (p<0.001) induction of IL-1α”.

For orientation: IC50 means the point on the concentration scale where inhibition reaches its midpoint.
